Assay results published in publication PMC11633381 (mBio, 2024).

How the values were obtained:
SusA [1] = molecular target: T1, SusA (Bacteroides thetaiotaomicron, UniProt Q8A1G0); experiment: inhibition kinetics with pNP-G6 (αKi); also ITC binding to free enzyme; format: biochemical
T1 construct: cloned starting with T23

BoGH97D = molecular target: T2, BoGH97D (Bacteroides ovatus, UniProt A0ABU3IP51); experiment: competitive inhibition kinetics with pNP-Glc; format: biochemical
T2 construct: gene RO706_07160; N-terminal 6x His tag, recombinant

BtGH97H = molecular target: T3, BtGH97H (Bacteroides thetaiotaomicron, UniProt Q89YZ9); experiment: competitive inhibition kinetics with pNP-Glc; format: biochemical
T3 construct: gene BT_4581; N-terminal 6x His tag, recombinant

BoSusB (BoGH97CSus) = molecular target: T4, BoSusB (BoGH97CSus) (Bacteroides ovatus, UniProt A0AAN3A6N4); experiment: co-crystal structure; competitive inhibition kinetics with pNP-Glc; format: biochemical
T4 construct: gene BACOVA_03519; N-terminal 6x His tag, recombinant

BoSusA (BoGH13BSus) [2] = molecular target: T5, BoSusA (BoGH13BSus) (Bacteroides ovatus, UniProt A0ABU3INP3, D331N); experiment: isothermal titration calorimetry; format: binding
T5 construct: gene RO706_06385; cloned starting with A90 (A23 in SusA numbering)

BoSusG (BoGH13ASus) = molecular target: T6, BoSusG (BoGH13ASus) (Bacteroides ovatus, UniProt A0ABU3ISA0); experiment: EnzChek fluorescent starch amylase assay; format: biochemical
T6 construct: gene RO706_06355

SusA [3] = molecular target: T7, SusA (Bacteroides thetaiotaomicron, UniProt Q8A1G0, D331N); experiment: isothermal titration calorimetry; format: binding
T7 construct: cloned starting with T23

BoSusA (BoGH13BSus) [4] = molecular target: T8, BoSusA (BoGH13BSus) (Bacteroides ovatus, UniProt A0ABU3INP3); experiment: inhibition kinetics with pNP-G6 (αKi); also ITC binding to free enzyme; format: biochemical; conditions: read-out: Inhibition constant
T8 construct: gene RO706_06385; cloned starting with A90 (A23 in SusA numbering)

With C[C@H]1O[C@H](O[C@H]2[C@H](O)[C@@H](O)[C@@H](O[C@H]3[C@H](O)[C@@H](O)C(O)O[C@@H]3CO)O[C@@H]2CO)[C@H](O)[C@@H](O)[C@@H]1N[C@H]1C=C(CO)[C@@H](O)[C@H](O)[C@H]1O (some centres unmarked) [acarbose] the Ki (SusA [1]) was 0.0947 ± 0.0069 µM, the Ki (BoGH97D) was 0.134 ± 0.0224 µM and the Ki (BtGH97H) was 0.162 ± 0.0243 µM. The Ki (BoSusB (BoGH97CSus)) was 0.0693 ± 0.0089 µM, the isothermal titration calorimetry (BoSusA (BoGH13BSus) [2]) was “Wild-type enzyme has two acarbose-binding sites, whereas a catalytically inert variant of each enzyme (D331N) has one” and the IC50 (BoSusG (BoGH13ASus)) was 2.2 ± 0.35 µM. For the same compound, the isothermal titration calorimetry (SusA [3]) was “Wild-type enzyme has two acarbose-binding sites, whereas a catalytically inert variant of each enzyme (D331N) has one” and the Ki (BoSusA (BoGH13BSus) [4]) was 0.123 ± 0.0092 µM.
